Where two headings read alike, the source gives them in different places.
What was measured:
CYP2B6 [1] = molecular target: T1, CYP2B6 (Homo sapiens, UniProt P20813); test: Inhibition of rCYP2B6 in microsomes from CYP450-overexpressing HEK293 cells; type: in vitro ADME; conditions: for IC50 / Ki: probe bupropion; for inhibition of activity against efavirenz: probe efavirenz (Supplemental Table 2)
T1 sequence (P20813 1-491): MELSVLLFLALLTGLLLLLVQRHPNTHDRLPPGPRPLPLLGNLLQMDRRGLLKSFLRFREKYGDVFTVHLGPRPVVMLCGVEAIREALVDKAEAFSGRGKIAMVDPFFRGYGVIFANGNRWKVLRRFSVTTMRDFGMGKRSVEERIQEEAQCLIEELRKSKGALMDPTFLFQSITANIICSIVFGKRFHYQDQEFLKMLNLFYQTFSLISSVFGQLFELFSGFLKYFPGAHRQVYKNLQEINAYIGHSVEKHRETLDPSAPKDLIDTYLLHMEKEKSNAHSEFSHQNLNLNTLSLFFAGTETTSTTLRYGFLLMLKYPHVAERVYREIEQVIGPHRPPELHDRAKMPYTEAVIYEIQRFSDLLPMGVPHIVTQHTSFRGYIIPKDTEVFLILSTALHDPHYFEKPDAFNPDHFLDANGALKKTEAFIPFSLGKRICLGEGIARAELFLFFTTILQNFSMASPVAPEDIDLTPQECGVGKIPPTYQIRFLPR

CYP2D6 = CYP2D6 (Homo sapiens, UniProt P10635); conditions: rCYP2D6 microsomes; probe bufuralol (Supplemental Table 2)
CYP2C9 = CYP2C9 (Homo sapiens, UniProt P11712); conditions: for inhibition of activity against S-warfarin: rCYP2C9 microsomes, probe S-warfarin (Supplemental Table 2)
[2] = Unbound fraction in incubation; type: in vitro ADME; conditions: human, human liver microsomes in buffer
[3] = plasma, ref Manini et al., 2015, Cox et al., 2019, cited from earlier work
CYP2E1 [4] = molecular target: T2, CYP2E1 (Homo sapiens, UniProt P05181); test: Inhibition of rCYP2E1 in microsomes from CYP450-overexpressing HEK293 cells; type: in vitro ADME; conditions: for IC50 / Ki: probe chlorzoxazone; for decrease in activity: CYP2E1
CYP2E1 [5] = molecular target: T2, CYP2E1; test: Inhibition of CYP2E1 probe; type: in vitro ADME; conditions: for IC50: probe chlorzoxazone; for Ki: probe chlorzoxazone (CYP2E1)
CYP1A2 [6] = molecular target: T3, CYP1A2 (Homo sapiens, UniProt P05177); test: Inhibition of rCYP1A2 in microsomes from CYP450-overexpressing HEK293 cells; type: in vitro ADME; conditions: probe phenacetin; for Ki: rCYP1A2 microsomes
T3 sequence (P05177 1-516): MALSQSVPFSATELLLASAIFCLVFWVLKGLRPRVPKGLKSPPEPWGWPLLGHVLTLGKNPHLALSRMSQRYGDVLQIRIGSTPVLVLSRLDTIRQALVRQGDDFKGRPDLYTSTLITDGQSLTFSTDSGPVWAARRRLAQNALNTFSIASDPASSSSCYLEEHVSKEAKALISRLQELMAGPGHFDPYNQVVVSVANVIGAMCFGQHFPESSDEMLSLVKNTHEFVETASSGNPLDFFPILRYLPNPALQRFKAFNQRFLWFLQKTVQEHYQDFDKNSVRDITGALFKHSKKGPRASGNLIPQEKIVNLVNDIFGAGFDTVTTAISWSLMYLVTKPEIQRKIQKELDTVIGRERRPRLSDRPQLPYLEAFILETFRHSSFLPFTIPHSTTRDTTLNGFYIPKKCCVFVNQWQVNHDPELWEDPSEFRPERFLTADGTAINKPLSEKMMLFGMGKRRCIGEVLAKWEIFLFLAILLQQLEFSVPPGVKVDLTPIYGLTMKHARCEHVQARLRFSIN

CYP1A2 [7] = molecular target: T3, CYP1A2; test: Inhibition of CYP1A2 probe; type: in vitro ADME; conditions: for IC50: probe phenacetin; for Ki: probe phenacetin (CYP1A2)
CYP1A2 [8] = molecular target: T3, CYP1A2; test: IC50 shift study; type: in vitro ADME
CYP2B6 [9] = molecular target: T1, CYP2B6; test: Inhibition of CYP2B6 probe; type: in vitro ADME; conditions: for IC50: probe bupropion; for Ki: probe bupropion (CYP2B6)
CYP2E1 [10] = molecular target: T2, CYP2E1; test: IC50 shift study; type: in vitro ADME
CYP2B6 [11] = molecular target: T1, CYP2B6; test: IC50 shift study; type: in vitro ADME
[12] = Unbound fraction in incubation; type: in vitro ADME; conditions: human, HEK293 cell microsomes in buffer
[13] = IC50,u, rCYP2B6 microsomes, corrected for fu,inc
[14] = Ki,u, rCYP2B6 microsomes, corrected for fu,inc
[15] = IC50,u, rCYP2E1 microsomes, corrected for fu,inc
[16] = Ki,u, rCYP2E1 microsomes, corrected for fu,inc
[17] = IC50,u, HLM, corrected for fu,inc
[18] = Ki,u, HLM, corrected for fu,inc
[19] = IC50 (+), 30-min preincubation with NADPH
[20] = IC50 (−), 30-min preincubation without NADPH

Chain of CYP2C9 (P11712 whole entry): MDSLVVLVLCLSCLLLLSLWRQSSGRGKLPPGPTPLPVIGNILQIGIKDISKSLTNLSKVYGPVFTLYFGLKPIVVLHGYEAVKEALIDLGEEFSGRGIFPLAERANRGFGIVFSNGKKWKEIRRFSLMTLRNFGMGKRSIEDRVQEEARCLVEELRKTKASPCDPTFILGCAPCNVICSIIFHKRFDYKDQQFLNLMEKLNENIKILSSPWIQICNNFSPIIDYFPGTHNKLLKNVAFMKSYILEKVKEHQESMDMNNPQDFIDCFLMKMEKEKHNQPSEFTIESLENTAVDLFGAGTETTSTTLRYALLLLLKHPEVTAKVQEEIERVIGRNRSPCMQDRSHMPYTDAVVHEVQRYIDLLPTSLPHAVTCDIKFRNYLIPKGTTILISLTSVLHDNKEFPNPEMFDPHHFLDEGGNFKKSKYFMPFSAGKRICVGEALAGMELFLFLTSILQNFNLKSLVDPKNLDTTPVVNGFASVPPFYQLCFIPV
T2 sequence (P05181 whole entry): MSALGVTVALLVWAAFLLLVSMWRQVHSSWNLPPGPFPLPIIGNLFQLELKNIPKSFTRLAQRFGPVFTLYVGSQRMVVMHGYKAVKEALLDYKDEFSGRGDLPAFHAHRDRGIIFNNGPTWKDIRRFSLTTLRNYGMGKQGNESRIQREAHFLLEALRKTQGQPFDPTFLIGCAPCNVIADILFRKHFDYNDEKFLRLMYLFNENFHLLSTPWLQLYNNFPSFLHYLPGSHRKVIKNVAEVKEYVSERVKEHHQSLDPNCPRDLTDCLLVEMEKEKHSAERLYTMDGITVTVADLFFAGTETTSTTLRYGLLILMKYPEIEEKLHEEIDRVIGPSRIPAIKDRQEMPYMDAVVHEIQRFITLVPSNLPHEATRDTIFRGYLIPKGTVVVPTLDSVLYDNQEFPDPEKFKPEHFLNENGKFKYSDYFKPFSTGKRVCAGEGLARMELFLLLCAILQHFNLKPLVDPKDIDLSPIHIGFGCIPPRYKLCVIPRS
Chain of CYP2D6 (P10635 whole entry): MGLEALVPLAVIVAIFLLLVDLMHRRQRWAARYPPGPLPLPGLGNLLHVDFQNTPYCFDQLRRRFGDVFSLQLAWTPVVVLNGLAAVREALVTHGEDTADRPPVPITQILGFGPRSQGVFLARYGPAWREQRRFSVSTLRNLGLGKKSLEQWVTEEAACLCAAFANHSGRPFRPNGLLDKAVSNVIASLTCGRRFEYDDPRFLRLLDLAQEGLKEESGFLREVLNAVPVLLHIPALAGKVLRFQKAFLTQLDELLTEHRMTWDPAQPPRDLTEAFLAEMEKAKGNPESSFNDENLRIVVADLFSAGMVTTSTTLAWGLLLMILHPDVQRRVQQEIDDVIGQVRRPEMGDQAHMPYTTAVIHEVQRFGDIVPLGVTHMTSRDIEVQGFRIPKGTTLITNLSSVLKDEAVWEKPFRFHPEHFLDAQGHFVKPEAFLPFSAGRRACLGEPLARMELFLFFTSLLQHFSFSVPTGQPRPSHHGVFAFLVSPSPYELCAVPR

## C=C(C)[C@@H]1CCC(C)=C[C@H]1c1c(O)cc(CCCCC)cc1O [CBD, cannabidiol]
CYP2B6 [1]; IC50, rCYP2B6 microsomes
  IC50: 2100 ± 610 nM
CYP2B6 [1]; [13]
  IC50: 130 ± 38 nM
CYP2B6 [1]; Ki, rCYP2B6 microsomes
  Ki: 1100 ± 240 nM
CYP2B6 [1]; [14]
  Ki: 68 ± 15 nM
CYP2B6 [1]; rCYP2B6 microsomes
  inhibition of activity against efavirenz: Strong inhibition
CYP2D6
  inhibition of activity against bufuralol: Strong inhibition
CYP2C9
  inhibition of activity against S-warfarin: Strong inhibition
[2]
  fraction unbound at 30 min, 50 µM: 0.098 ± 0.023
[3]; 20-mg inhaled dose of CBD
  Cmax: 10.3 nM
[3]; oral dose of 800 mg of CBD
  Cmax: 703 nM
CYP2E1 [4]; IC50, rCYP2E1 microsomes
  IC50: 590 ± 130 nM
CYP2E1 [4]; [15]
  IC50: 37 ± 8.1 nM
CYP2E1 [4]; Ki, rCYP2E1 microsomes
  Ki: 340 ± 98 nM
CYP2E1 [4]; [16]
  Ki: 21 ± 6.1 nM
CYP2E1 [5]; IC50, HLM
  IC50: 1400 ± 250 nM
CYP2E1 [5]; [17]
  IC50: 140 ± 25 nM
CYP2E1 [5]; Ki, HLM
  Ki: 590 ± 230 nM
CYP2E1 [5]; [18]
  Ki: 58 ± 23 nM
CYP1A2 [6]; IC50, rCYP1A2 microsomes
  IC50: 2100 ± 930 nM
CYP1A2 [6]; Ki
  Ki: 1900 ± 1200 nM
CYP1A2 [6]; Ki,u, corrected for fu,inc
  Ki: 120 ± 74 nM
CYP1A2 [7]; IC50, HLM
  IC50: 6800 ± 1500 nM
CYP1A2 [7]; [17]
  IC50: 670 ± 150 nM
CYP1A2 [7]; Ki, HLM
  Ki: 2100 ± 1100 nM
CYP1A2 [7]; [18]
  Ki: 210 ± 110 nM
CYP1A2 [8]; [19]
  IC50: 1800 ± 310 nM
CYP1A2 [8]; [20]
  IC50: 2100 ± 250 nM
CYP2B6 [9]; IC50, HLM
  IC50: 2700 ± 2400 nM
CYP2B6 [9]; [17]
  IC50: 260 ± 240 nM
CYP2B6 [9]; Ki, HLM
  Ki: 2200 ± 530 nM
CYP2B6 [9]; [18]
  Ki: 220 ± 52 nM
CYP2E1 [10]; [19]
  IC50: 900 ± 400 nM
CYP2E1 [10]; [20]
  IC50: 1100 ± 660 nM
CYP2B6 [11]; [19]
  IC50: 1300 ± 450 nM
CYP2B6 [11]; [20]
  IC50: 1900 ± 660 nM

## CCCCCc1cc(O)c2c(c1)OC(C)(C)c1ccc(C)cc1-2 [CBN, cannabinol]
CYP2B6 [1]; CYP2B6, 10 µM cannabinoid
  decrease in activity: 75%
CYP2B6 [1]; IC50, rCYP2B6 microsomes
  IC50: 2100 ± 870 nM
CYP2B6 [1]; [13]
  IC50: 630 ± 260 nM
CYP2B6 [1]; Ki, rCYP2B6 microsomes
  Ki: 620 ± 190 nM
CYP2B6 [1]; [14]
  Ki: 190 ± 57 nM
CYP2B6 [1]; rCYP2B6 microsomes
  inhibition of activity against efavirenz: Strong inhibition
CYP2D6
  inhibition of activity against bufuralol: no inhibition was observed
CYP2C9; CYP2C9, 10 µM cannabinoid
  decrease in activity: 55%
CYP2C9
  inhibition of activity against S-warfarin: Strong inhibition
[2]
  fraction unbound at 30 min, 50 µM: 0.052 ± 0.081
CYP2E1 [4]; 1 µM cannabinoid
  decrease in activity: 77%
CYP2E1 [4]; 10 µM cannabinoid
  decrease in activity: 80%
CYP2E1 [4]; IC50, rCYP2E1 microsomes
  IC50: 920 ± 100 nM
CYP2E1 [4]; [15]
  IC50: 280 ± 30 nM
CYP2E1 [4]; Ki, rCYP2E1 microsomes
  Ki: 210 ± 97 nM
CYP2E1 [4]; [16]
  Ki: 63 ± 29 nM
CYP2E1 [5]; IC50, HLM
  IC50: 1100 ± 720 nM
CYP2E1 [5]; [17]
  IC50: 570 ± 370 nM
CYP2E1 [5]; Ki, HLM
  Ki: 330 ± 91 nM
CYP2E1 [5]; [18]
  Ki: 170 ± 47 nM
CYP2B6 [9]; IC50, HLM
  IC50: 1700 ± 590 nM
CYP2B6 [9]; [17]
  IC50: 880 ± 310 nM
CYP2B6 [9]; Ki, HLM
  Ki: 1700 ± 420 nM
CYP2B6 [9]; [18]
  Ki: 880 ± 220 nM
[12]
  fraction unbound at 30 min, 50 µM: 0.03 ± 0.052
CYP2E1 [10]; [19]
  IC50: 730 ± 210 nM
CYP2E1 [10]; [20]
  IC50: 870 ± 150 nM
CYP2B6 [11]; [19]
  IC50: 2000 ± 700 nM
CYP2B6 [11]; [20]
  IC50: 2100 ± 830 nM

— article PMC11022895 (Drug Metabolism and Disposition, 2021)
